Results as given in patent US10611728B2, “Isoindoline compositions and methods for treating neurodegenerative disease” (priority 2014, dated 2020).

Experiments:
[1] = Microsomal stability in mouse liver microsomes (MLM); assay type: in vitro ADME
Method: A first pharmacokinetic study was performed in microsomes of mice mouse liver microsomes, MLM) by a commercial contract research organization. The studies were performed according to Obach, R. S et al. (1997) J. Pharmacol. Exp. Ther., 283: 46-58, which is incorporated herein by reference.

[2] = test system: Abeta oligomer-induced synapse loss in primary hippocampal neurons; test: Abeta 1-42 oligomer synapse loss assay; assay type: cell-based, rat; settings: Abeta 42 oligomers
Method: In this assay, Abeta oligomers are brought in contact with mature primary neurons in culture and their binding was determined by immunohistochemistry (anti-Abeta antibody) and quantified by image processing. The amount of Abeta in neuronal dendrites is assessed by counting the number of labeled puncta on the neuritis. […] This labeling is associated with synapses, co-localizing with the post-synaptic scaffold protein PSD-95 (Lacor et al., '04). […] The number of synapses can also be quantified in this assay by immunofluorochemistry.
Primary hippocampal neuronal culture is established as in the membrane trafficking assay above. […] Pretreatment with test compounds for 1 hr and addition of Abeta oligomers or no oligomer (vehicle alone) is followed by incubation for an additional 23 hrs.
The plates are then washed 3× with PBS for 5 min each. The plates are blocked at RT for 1 hr in 5% goat serum and 0.5% Triton X-100 in PBS. Primary antibodies (anti-MAP 2 polyclonal, Millipore # AB5622 and anti-Beta Amyloid 6E10 monoclonal, Covance # SIG-39300, at 1 microgram/ml, and rabbit polyclonal anti-synaptophysin, Anaspec, at 0.2 microgram/ml) were diluted 1:1000 in 5% goat serum with PBS. Primary antibodies are incubated overnight at 4° C. The plates are then washed 3× with PBS for 5 min each. Secondary antibodies (Alex Flor 488 polyclonal, Invitrogen # A11008 and Alexa Flor 647 monoclonal, Invitrogen # A21235) are diluted 1:1000 in 5% goat serum with PBS. Secondary antibodies are incubated at RT for 1 hr. The plates are washed once with PBS. DAPI (4′,6-diamidino-2-phenylindole, Invitrogen) is then applied at 0.03 ug/ul and incubated at RT for 5 min, then washed with PBS.

[3] = half-life in mouse liver microsomes

| SMILES | Mouse liver microsomes, MLM t½ ([1]; mouse, microsomes) | other results |
| --- | --- | --- |
| C[C@H](CCc1ccc(O)c(OC(C)(C)C)c1)N1Cc2c(F)ccc(F)c2C1 [60A] | 5 min |  |
| CCCN(CCC)CCc1ccc(OC)c(OCCc2ccccc2)c1 [NE-100] |  | elimination of Abeta oligomer-induced synapse loss [2]: completely eliminated synapse loss |
| CCC(Oc1ccc(Cl)cc1)C(=O)OC1CC2CCC(C1)N2C (stereo not drawn) [SM-21] |  | elimination of Abeta oligomer-induced synapse loss [2]: only weakly active in eliminating synapse loss; recovery of synapse loss [2]: 20% |
| COc1cc(CC[C@@H](C)N2Cc3ccc(Cl)cc3C2)ccc1O [compound 1] | 11 min |  |
| COc1cc(CC[C@@H](C)N2Cc3ccc(C(F)(F)F)cc3C2)ccc1O [compound 2] | 28 min |  |
| COc1cc(CC[C@@H](C)N2Cc3cc(Cl)c(Cl)cc3C2)ccc1O [compound 3] | 21 min |  |
| C[C@H](CCc1ccc(Cl)c(Cl)c1)N1Cc2ccc(C(F)(F)F)cc2C1 [compound 4] | 40 min |  |
| C[C@H](CCc1ccc(Cl)c(Cl)c1)N1Cc2cc(Cl)c(Cl)cc2C1 [compound 5] | 53 min |  |
| COc1cc(CC[C@@H](C)N2Cc3cc4c(cc3C2)OCO4)ccc1O [compound 6] |  | Mouse liver microsomes, MLM t½ [1, 3]: 20 min |
| C[C@H](CCc1ccc(Cl)c(Cl)c1)N1Cc2cccc(F)c2C1 [compound 9] | 12 min |  |
| C[C@H](CCc1ccc(Cl)c(Cl)c1)N1Cc2cc3c(cc2C1)OCO3 [compound 10] | 8 min |  |
| COc1cc2c(cc1OC)CN([C@H](C)CCc1ccc(Cl)c(Cl)c1)C2 [compound 11] |  | Mouse liver microsomes, MLM t½ [1, 3]: 61 min |
| C[C@H](CCc1ccc(Cl)c(Cl)c1)N1Cc2ccc(F)cc2C1.Cl [compound 12] | 13 min |  |
| Cc1ccc2c(c1)CN([C@H](C)CCc1ccc(Cl)c(Cl)c1)C2 [compound 13] | 3 min |  |
| COc1ccc2c(c1)CN([C@H](C)CCc1ccc(Cl)c(Cl)c1)C2.Cl [compound 15] | 15 min |  |
| C[C@H](CCc1ccc(Cl)c(Cl)c1)N1Cc2cccc(Cl)c2C1.Cl [compound 16] | 12 min |  |
| COc1cc(CCC(C)N2Cc3ccc4ccccc4c3C2)ccc1O.Cl (stereo not drawn) [compound 17] | 10 min |  |
| C[C@H](CCc1ccc(Cl)c(Cl)c1)N1Cc2ccc3ccccc3c2C1 [compound 19] | 25 min |  |
| COc1cc2c(cc1OC)CN([C@@H](C)CCc1ccc(Cl)c(Cl)c1)C2 [compound 20] | 43 min |  |
| C[C@H](CCc1ccc(F)cc1)N1Cc2cc3c(cc2C1)OCO3 [compound 23] | 5 min |  |
| C[C@H](CCc1ccc(O)c(OC(F)(F)F)c1)N1Cc2cc3c(cc2C1)OCO3 [compound 24] | 5 min |  |
| CC(C)Oc1cc(CC[C@@H](C)N2Cc3cccc(F)c3C2)ccc1O [compound 26] | 4 min |  |
| C[C@H](CCc1ccc(O)c(OC(F)(F)F)c1)N1Cc2ccc(F)cc2C1 [compound 31] | 6 min |  |

| SMILES | Mouse liver microsomes, MLM t½ ([1]; mouse, microsomes) | other results |
| --- | --- | --- |
| CC(C)Oc1cc(CC[C@@H](C)N2Cc3ccc(F)cc3C2)ccc1O [compound 37] | 5 min |  |
| CC(C)Oc1ccc(CC[C@@H](C)N2Cc3cc4c(cc3C2)OCO4)cc1OC(C)C [compound 40] | 6 min |  |
| C[C@H](CCc1ccc(OC(=O)N(C)C)c(OC(F)(F)F)c1)N1Cc2ccc(F)cc2C1 [compound 43] | 5 min |  |
| COC[C@H](CCc1ccc(Cl)c(Cl)c1)N1Cc2ccc(F)cc2C1 [compound 46] | 5 min |  |
| COc1cc(CCC(C)(C)N2Cc3cc4c(cc3C2)OCO4)ccc1OCCO [compound 47] | 91 min |  |
| COc1cc(CCC(C)(C)N2Cc3ccc(F)cc3C2)ccc1OC(=O)N(C)C [compound 50] | 33 min |  |
| COc1cc(CC[C@@H](C)N2Cc3cccc(F)c3C2)ccc1OCCO [compound 51] | 66 min |  |
| COc1cc(CC[C@@H](C)N2Cc3cc4c(cc3C2)OCO4)ccc1OCCO [compound 52] | 97 min |  |
| CC(C)(C)Oc1cc(CCC(C)(C)N2Cc3ccc(S(C)(=O)=O)cc3C2)ccc1O [compound 62] | 45 min |  |
| C[C@H](CCc1ccc(O)c(OC(C)(C)C)c1)N1Cc2ccc(S(C)(=O)=O)cc2C1 [compound 63] | 31 min |  |
| COc1cc(CC[C@@H](C)N2Cc3cccc(S(C)(=O)=O)c3C2)ccc1O [compound 65] | 41 min |  |
| CC(C)Oc1cc(CC[C@@H](C)N2Cc3ccc(S(C)(=O)=O)cc3C2)ccc1O [compound 69] | 75 min |  |
| CC(C)Oc1cc(CCC(C)(C)N2Cc3ccc(S(C)(=O)=O)cc3C2)ccc1O [compound 70] | 79 min |  |
| COc1cc(CCC(C)(C)N2Cc3cccc(C(=O)N4CCOCC4)c3C2)ccc1O [compound 80] | 45 min |  |
| COc1cc(CCC(C)(C)N2Cc3cccc(C(=O)N4CCN(C)CC4)c3C2)ccc1O [compound 82] | 27 min |  |
| CC(C)COc1cc(CCC(C)(C)N2Cc3ccc(S(C)(=O)=O)cc3C2)ccc1O [compound 87] | 86 min |  |
| CC(C)COc1cc(CCC(C)(C)N2Cc3cccc(C(=O)N4CCOCC4)c3C2)ccc1O [compound 90] | 9 min |  |
| CC(C)COc1cc(CCC(C)(C)N2Cc3cccc(C(=O)N4CCN(C)CC4)c3C2)ccc1O [compound 91] | 6 min |  |
| CC(=O)N1CCN(C(=O)c2cccc3c2CN(C(C)(C)CCc2ccc(O)c(OCC(C)C)c2)C3)CC1 [compound 92] | 7 min |  |
| CN1CCN(C(=O)c2cccc3c2CN(C(C)(C)CCc2ccc(O)c(OC(F)(F)F)c2)C3)CC1 [compound 93] | 5 min |  |
| CC(C)(CCc1ccc(O)c(OC(F)(F)F)c1)N1Cc2cccc(C(=O)N3CCOCC3)c2C1 [compound 94] | 14 min |  |
| O=C(CCCN1CCC(O)(c2ccc(Cl)cc2)CC1)c1ccc(F)cc1 [haloperidol] |  | elimination of Abeta oligomer-induced synapse loss [2]: completely eliminated synapse loss |

Second part, led by results:

| Mouse liver microsomes, MLM t½ ([1]; mouse, microsomes) | SMILES | other results |
| --- | --- | --- |
| 8 min | C[C@H](CCc1ccc(O)c(OC(C)(C)C)c1)N1Cc2cccc(F)c2C1 [60B] |  |
| 16 min | COc1cc(CC[C@@H](C)N2Cc3cccc(F)c3C2)ccc1O [compound 8] |  |
| 7 min | C[C@H](CCc1ccc(F)cc1)N1Cc2cccc(F)c2C1 [compound 21] |  |
| 7 min | C[C@H](CCc1ccc(F)cc1)N1Cc2ccc(F)cc2C1 [compound 22] |  |
| 4 min | CC(C)Oc1cc(CCC(C)(C)N2Cc3cccc(F)c3C2)ccc1O [compound 28] |  |
| 9 min | CC(C)(CCc1ccc(F)cc1)N1Cc2cccc(F)c2C1 [compound 33] |  |
| 46 min | COc1cc2c(cc1OC)CN(C(C)(C)CCc1ccc(F)cc1)C2 [compound 34] |  |
| 9 min | CC(C)(CCc1ccc(F)cc1)N1Cc2ccc(F)cc2C1 [compound 35] |  |
| 47 min | CC(C)(CCc1ccc(F)cc1)N1Cc2cc3c(cc2C1)OCO3 [compound 36] |  |
| 14 min | CC(C)Oc1ccc(CCC(C)(C)N2Cc3ccc(F)cc3C2)cc1OC(C)C [compound 42] |  |
| 29 min | COc1cc(CCC(C)(C)N2Cc3cccc(F)c3C2)ccc1OCCO [compound 44] |  |
| 96 min | COc1cc(CCC(C)(C)N2Cc3ccc(F)cc3C2)ccc1OCCO [compound 45] |  |
| 21 min | COc1cc(CCC(C)(C)N2Cc3cccc(F)c3C2)ccc1O [compound 53] |  |
| 12 min | CC(C)(CCc1ccc(O)c(OC(F)(F)F)c1)N1Cc2cccc(F)c2C1 [compound 54] |  |
| 34 min | CC(C)(CCc1ccc(O)c(OC(F)(F)F)c1)N1Cc2c(F)ccc(F)c2C1 [compound 55] |  |
| 26 min | CN(C)C(=O)c1cccc2c1CN(C(C)(C)CCc1ccc(O)c(OC(F)(F)F)c1)C2 [compound 57] |  |
| 8 min | CN(C)C(=O)c1cccc2c1CN(C(C)(C)CCc1ccc(O)c(OC(C)(C)C)c1)C2 [compound 59] |  |
| 52 min | COc1cc(CCC(C)(C)N2Cc3cccc(S(C)(=O)=O)c3C2)ccc1O [compound 64] |  |
| 10 min | CC(C)(C)Oc1cc(CCC(C)(C)N2Cc3cccc(S(C)(=O)=O)c3C2)ccc1O [compound 66] |  |
| 39 min | CC(C)(CCc1ccc(O)c(OC(F)(F)F)c1)N1Cc2cccc(S(C)(=O)=O)c2C1 [compound 67] |  |
| 21 min | CC(C)(C)Oc1cc(CCC(C)(C)N2Cc3c(F)ccc(F)c3C2)ccc1O [compound 74] |  |
| 450 min | COc1cc(CCC(C)(C)N2Cc3cccc(C(=O)NCCN(C)C)c3C2)ccc1O [compound 78] |  |
| 88 min | COc1cc(CCC(C)(C)N2Cc3cccc(C(=O)N(C)CCN(C)C)c3C2)ccc1O [compound 81] |  |
| 19 min | COCCN(C)C(=O)c1cccc2c1CN(C(C)(C)CCc1ccc(O)c(OC)c1)C2 [compound 86] |  |
| 28 min | CC(C)COc1cc(CCC(C)(C)N2Cc3cccc(F)c3C2)ccc1O [compound 88] |  |
| 17 min | CC(C)COc1cc(CCC(C)(C)N2Cc3cccc(C(=O)N(C)C)c3C2)ccc1O [compound 89] |  |
